The results in this text go back to ChEMBL document CHEMBL3046564, “Antifungal activity of beta-asarone from rhizomes of Acorus gramineus” (2004).

≈ marks a conversion by molar mass, not a printed value. Calls of active or inactive are those of the source. The calls are words filed in the database; no cut-off is given here. Where only a bound is given, the exact number is not on record here.

Test [1] deals with Colletotrichum orbiculare. Description: Antifungal activity against Colletotrichum orbiculare infested cucumber plant grown under greenhouse condition assessed as reduction in lesion formation on second leaves at 10 to 500 ug/ml sprayed at two-leaf stage 1 day prior inoculation measured after 6 days post inoculation. It is filed as functional, organism-based.
The next test concerns Cladosporium cucumerinum. Description: Antimicrobial activity against Cladosporium cucumerinum assessed as mycelial growth inhibition after 3 to 5 days. The test is classed as functional.
For the next test, the system named is Xanthomonas campestris. In words: Antimicrobial activity against Xanthomonas euvesicatoria assessed as mycelial growth inhibition after 3 to 5 days. It is filed as functional.
In the next test the test system is Sclerotinia sclerotiorum. Description: Antimicrobial activity against Sclerotinia sclerotiorum assessed as mycelial growth inhibition after 3 to 5 days. The test is classed as functional.
The test system of a further test is Bacillus subtilis. In words: Antimicrobial activity against Bacillus subtilis assessed as mycelial growth inhibition after 3 to 5 days. It is filed as functional.
The test system of test [2] is Fusarium oxysporum f. sp. lycopersici. In words: Antimicrobial activity against Fusarium oxysporum f. sp. lycopersici assessed as mycelial growth inhibition after 3 to 5 days. It is filed as functional.
The test system of a further test is Ralstonia solanacearum. Description: Antimicrobial activity against Ralstonia solanacearum assessed as mycelial growth inhibition after 3 to 5 days. It is filed as functional.
A further test relates to Phytophthora capsici. In words: Antimicrobial activity against Phytophthora capsici assessed as mycelial growth inhibition after 3 to 5 days. It is filed as functional.
The subject of test [3] is Colletotrichum orbiculare. In words: Antimicrobial activity against Colletotrichum orbiculare assessed as mycelial growth inhibition after 3 to 5 days. The test is classed as functional.
The test system of test [4] is Colletotrichum orbiculare. In words: Antifungal activity against Colletotrichum orbiculare infested cucumber plant grown under greenhouse condition assessed as supression of anthracnose development at 500 ug/ml sprayed at two-leaf stage 1 day prior inoculation measured after 6 days post inoculation. The test is classed as functional, organism-based.
The next test has as its system Globisporangium ultimum. In words: Antimicrobial activity against Pythium ultimum assessed as mycelial growth inhibition after 3 to 5 days. It is filed as functional.
Test [5] concerns Colletotrichum orbiculare. Description: Antifungal activity against Colletotrichum orbiculare infested cucumber plant grown under greenhouse condition assessed as reduction in lesion formation on second leaves at 500 ug/ml sprayed at two-leaf stage 1 day prior inoculation measured after 6 days post inoculation. The test is classed as functional, organism-based.
The subject of another test is Botrytis cinerea. In words: Antimicrobial activity against Botryotinia fuckeliana assessed as mycelial growth inhibition after 3 to 5 days. The test is classed as functional.
Test [6] relates to Pectobacterium carotovorum subsp. carotovorum. In words: Antimicrobial activity against Pectobacterium carotovorum subsp. carotovorum assessed as mycelial growth inhibition after 3 to 5 days. The test is classed as functional.
A further test deals with Rhizoctonia solani. Description: Antimicrobial activity against Rhizoctonia solani assessed as mycelial growth inhibition after 3 to 5 days. The test is classed as functional.
In a further test the test system is Candida albicans. Description: Antimicrobial activity against Candida albicans assessed as mycelial growth inhibition after 3 to 5 days. The test is classed as functional.
Another test relates to Saccharomyces cerevisiae. Description: Antimicrobial activity against Saccharomyces cerevisiae assessed as mycelial growth inhibition after 3 to 5 days. The test is classed as functional.
Another test has as its system Ilyonectria destructans. In words: Antimicrobial activity against Ilyonectria radicicola assessed as mycelial growth inhibition after 3 to 5 days. It is filed as functional.
Another test relates to Alternaria mali. In words: Antimicrobial activity against Alternaria mali assessed as mycelial growth inhibition at 100 ug/ml after 3 to 5 days. It is filed as functional, organism-based.
The test system of the next test is Pyricularia grisea. Description: Antimicrobial activity against Magnaporthe grisea assessed as mycelial growth inhibition after 3 to 5 days. The test is classed as functional.

Consider `N#Cc1c(Cl)c(Cl)c(Cl)c(C#N)c1Cl`, for which the result in test [1] was Active.

The MIC is the lowest concentration found to suppress growth. On to `C/C=C\c1cc(OC)c(OC)cc1OC` [CIS-ASARONE], for which the MIC in the test on Cladosporium cucumerinum was 30 µg/mL (≈ 144 µM); in the test on Xanthomonas campestris it was 50 µg/mL (≈ 240 µM); in the test on Sclerotinia sclerotiorum it was more than 100 µg/mL; with Bacillus subtilis, 50 µg/mL (≈ 240 µM); in test [2], more than 100 µg/mL; in the test with Ralstonia solanacearum, 50 µg/mL (≈ 240 µM). The MIC in the test on Phytophthora capsici is more than 100 µg/mL; in [3], 30 µg/mL (≈ 144 µM); in the test on Globisporangium ultimum it was 0.5 µg/mL (≈ 2.4 µM); in the test on Botrytis cinerea it was more than 100 µg/mL; in test [6], 50 µg/mL (≈ 240 µM); in the test on Rhizoctonia solani it was more than 100 µg/mL. Also, the MIC in the test with Candida albicans is more than 100 µg/mL; in the test with Saccharomyces cerevisiae it was more than 100 µg/mL; in the test on Ilyonectria destructans it was more than 100 µg/mL; in the test with Pyricularia grisea, 30 µg/mL (≈ 144 µM). Also, the outcome in [4] and in test [5] was Active. Also, the “growth inhibition (GI)” value in the test with Alternaria mali is “inactive”.
